From article PMC12040169 (PLOS Biology, 2025)

Assay: in vitro
Conditions: human, hela cells, % viability

| Compound | viability at 28.5 h, 10 µM [%] |
| --- | --- |
| O=C(c1ccoc1)N1CCC2(CCCN(Cc3c(F)cccc3F)C2)C1 (stereo not drawn) [CBK132806] | 95.1 |
| O=C(CN1CCCC2(CCN(C(=O)c3ccoc3)C2)C1)Nc1ccc(F)c(Cl)c1 (stereo not drawn) [CBK132822] | 92.7 |
| CCN1CCCC2(CCN(C(=O)c3ccoc3)C2)C1 (stereo not drawn) [CBK132832] | 97.7 |
| O=C1NC(=O)C(CCCCN2CCCC3(CCN(C(=O)c4ccoc4)C3)C2)N1 (stereo not drawn) [CBK132833] | 96.8 |
| Cc1nc(CN2CCCC3(CCN(C(=O)c4ccoc4)C3)C2)cs1 (stereo not drawn) [CBK132838] | 97.6 |
| COc1ccc(C(=O)N2CCC3(CCCN(Cc4nc5ccccc5[nH]4)C3)C2)cc1OC (stereo not drawn) [CBK132847] | 93.9 |
| COc1ccc(C(=O)N2CCC3(CCCN(CC(=O)Nc4ncccn4)C3)C2)cc1OC (stereo not drawn) [CBK132860] | 105 |
| COc1ccc(C(=O)N2CCC3(CCCN(CCN(C)C)C3)C2)cc1OC (stereo not drawn) [CBK132873] | 95.6 |
| CC(C)(C)OC(=O)N1CCC(Oc2nccc3c2ccn3Cc2ccc(S(C)(=O)=O)cc2)CC1 [CBK132881] | 89.2 |
| COc1ccc(C(=O)N2CCN(CC(=O)N3CCOCC3)CC2)cc1 [CBK133150] | 108 |
| COc1cc(NC(=O)Cn2cnc3c2c(=O)n(C)c(=O)n3C)c(OC)cc1Cl [CBK133231] | 99.2 |
| Cn1c(=O)c2c(ncn2CC(=O)Nc2ccccc2I)n(C)c1=O [CBK133275] | 95.6 |
| Cn1c(=O)c2c(ncn2CC(=O)Nc2cccnc2)n(C)c1=O [CBK133286] | 94.5 |
| Cn1c(=O)c2c(ncn2CC(=O)Nc2cccc(Br)c2)n(C)c1=O [CBK133287] | 90.7 |
| Cc1cc(Br)ccc1NC(=O)Cn1cnc2c1c(=O)n(C)c(=O)n2C [CBK133289] | 95.6 |
| Cn1c(=O)c2c(ncn2CC(=O)Nc2ccc(C#N)cc2)n(C)c1=O [CBK133466] | 90.9 |
| Cn1c(=O)c2c(ncn2CC(=O)Nc2ccc3ccccc3c2)n(C)c1=O [CBK133722] | 81.2 |
| CCCn1c(NCc2cccc(OC)c2O)nc2ccccc21 [CBK133763] | 96.4 |
| Cc1cccc(OCC(=O)N2CCN(Cc3ccccn3)CC2)c1 [CBK134023G] | 92.3 |
| COC(=O)c1ccc(NC(=O)Cn2nnc(-c3ccc(CN4CCOCC4)cc3)n2)cc1 [CBK134589] | 95.4 |
| Cc1ccc2cc(CN(CCN(C)C)C(=S)Nc3ccccc3)c(=O)[nH]c2c1 [CBK134909] | 104 |

| Compound | viability at 28.5 h, 10 µM [%] |
| --- | --- |
| COc1ccc2[nH]c(=O)c(CN(CCN(C)C)C(=S)Nc3ccc(F)cc3)cc2c1 [CBK135011] | 97.1 |
| Cc1ccc(NC(=S)N(CCN(C)C)Cc2cc3ccc(C)cc3[nH]c2=O)c(C)c1 [CBK135134] | 92.4 |
| CN(C)CCN(Cc1cc2cc3c(cc2[nH]c1=O)OCO3)C(=S)Nc1ccc(F)cc1 [CBK135186] | 91.2 |
| COc1ccc2[nH]c(=O)c(CN(CCCN3CCOCC3)C(=O)Nc3cccc(Cl)c3)cc2c1 [CBK135402] | 96.8 |
| Nc1ccc(-c2nnn(CC(=O)NC3CCCCC3)n2)cc1 [CBK135771] | 86.7 |
| COc1ccc(CNC(=O)Cn2nnc(-c3ccc(NC(=O)C4CCCCC4)cc3)n2)cc1 [CBK135876] | 101 |
| Cc1cc(C)nc(N2CCC(C(=O)NCc3ccc(Cl)cc3)CC2)n1 [CBK136319] | 94.8 |
| CC(C)(C)OC(=O)NC(C)(C)C(=O)N1C[C@H](C(=O)N2CCC3(CC2)CN(S(C)(=O)=O)c2ccccc23)[C@@H](c2nc3ccccc3s2)C1 [CBK136737] | 91.5 |
| O=C(c1ccc(OC(F)(F)F)cc1)N1CCC2(CCN(Cc3ccccc3)CC2)C1 [CBK136746] | 101 |
| O=C(c1cc[nH]c1)N1CCC2(CCN(Cc3ccccc3)CC2)C1 [CBK136756] | 86.9 |
| Cc1cc(C(=O)N2CCC(Cn3cncn3)(C3CCCCC3)CC2)n[nH]1 [CBK136786] | 99.2 |
| O=C(C1COc2ccccc2O1)N1CCC(Cn2cncn2)(C2CCCCC2)CC1 (stereo not drawn) [CBK136792] | 102 |
| CSCCC(=O)N1CCC(Cn2cncn2)(C2CCCCC2)CC1 [CBK136799] | 102 |
| Cc1cn(CC(=O)N2CCC(Cn3cncn3)(C3CCCCC3)CC2)c(=O)[nH]c1=O [CBK136800] | 88.4 |
| O=C(CN1CCOCC1)N1CCC(Cn2cncn2)(C2CCCCC2)CC1 [CBK136803] | 95.7 |
| O=C(c1ccco1)N1CCC(Cn2cncn2)(C2CCCCC2)CC1 [CBK136811] | 87.2 |
| CN1CCC[C@H]1C(=O)N1CCC(Cn2cncn2)(C2CCCCC2)CC1 [CBK136818] | 101 |
| CC(C)(N)CC(=O)N1CCC(Cn2cncn2)(C2CCCCC2)CC1 [CBK136822] | 89.4 |
| O=C(c1cncnc1)N1CCC(Cn2cncn2)(C2CCCCC2)CC1 [CBK136823] | 92.7 |
| O=C(c1ccc2[nH]c(=O)[nH]c2c1)N1CCC(Cn2cncn2)(C2CCCCC2)CC1 [CBK136824] | 104 |
| O=C(c1ccc(Oc2ccccc2)cc1)N1CCC2(CCN(Cc3ccccc3)C2)C1 (stereo not drawn) [CBK136833] | 99.3 |

| Compound | viability at 28.5 h, 10 µM [%] |
| --- | --- |
| O=C1NC(=O)C(CC(=O)N2CCC3(CCN(Cc4ccccc4)C3)C2)N1 (stereo not drawn) [CBK136850] | 88.8 |
| O=C(c1c(F)cccc1F)N1CCCC2(CCN(Cc3ccccc3)C2)C1 (stereo not drawn) [CBK136886] | 108 |
| O=C(O)CCC(=O)N1CCCC2(CCN(Cc3ccccc3)C2)C1 (stereo not drawn) [CBK136890] | 97 |
| CCOC(=O)C1(C2CCCCC2)CCN(C(=O)c2cccc(C(F)(F)F)c2)CC1 [CBK136920] | 91.7 |
| CCOC(=O)C1(C2CCCCC2)CCN(C(=O)Cc2ccc(Cl)c(Cl)c2)CC1 [CBK136922] | 95.2 |
| CCOC(=O)C1(C2CCCCC2)CCN(C(=O)C2COc3ccccc3O2)CC1 (stereo not drawn) [CBK136925] | 101 |
| CCOC(=O)C1(C2CCCCC2)CCN(C(=O)CCSC)CC1 [CBK136929] | 113 |
| CCOC(=O)C1(C2CCCCC2)CCN(C(=O)C(c2ccccc2)c2ccccc2)CC1 [CBK136943] | 106 |
| CCOC(=O)C1(C2CCCCC2)CCN(C(=O)C2CCN(C)CC2)CC1 [CBK136948] | 92.7 |
| CCNC(=O)N1CC2(CCN(Cc3ccc4nsnc4c3)CC2)c2ccccc21 [CBK136968] | 102 |
| CC(C)C(=O)N1CC2(CCN(Cc3nc4ccccc4s3)CC2)c2ccccc21 [CBK136980] | 96 |
| CCN1CC2(CCN(Cc3nc4ccccc4s3)CC2)c2ccccc21 [CBK136993] | 108 |
| CCN1CC2(CCN(Cc3ccc4nsnc4c3)CC2)c2ccccc21 [CBK136994] | 87.7 |
| O=C(CO)N1CC2(CCN(CCc3cccc4ccccc34)CC2)c2ccccc21 [CBK137003] | 91.8 |
| O=C(CO)N1CC2(CCN(Cc3cccc4cccnc34)CC2)c2ccccc21 [CBK137004] | 104 |
| N#CCCCN1CCC2(CC1)CN(C(=O)CO)c1ccccc12 [CBK137007] | 86 |
| OCCN1CC2(CCN(Cc3c(F)cccc3F)CC2)c2ccccc21 [CBK137010] | 109 |
| OCCN1CC2(CCN(CCc3cccc4ccccc34)CC2)c2ccccc21 [CBK137013] | 106 |
| OCCN1CC2(CCN(Cc3cccc4cccnc34)CC2)c2ccccc21 [CBK137014] | 95.1 |
| N#CCCCN1CCC2(CC1)CN(CC(N)=O)c1ccccc12 [CBK137024] | 97.7 |
| Cc1cnc(CNC(=O)Cn2nnc(-c3ccc(CN4CCC(C)CC4)cc3)n2)cn1 [CBK137067C] | 101 |

| Compound | viability at 28.5 h, 10 µM [%] |
| --- | --- |
| O=C(c1ccc2occc2c1)N1CCCC2(CCN(C(=O)c3cc(F)c(F)cc3F)C2)C1 (stereo not drawn) [CBK137071] | 90.1 |
| O=C(Cc1c[nH]cn1)N1CCCC2(CCN(C(=O)c3cc(F)c(F)cc3F)C2)C1 (stereo not drawn) [CBK137072] | 95.6 |
| COc1ccc(C(=O)N2CCC3(CCCN(C(=O)CC4NC(=O)NC4=O)C3)C2)cc1OC (stereo not drawn) [CBK137082] | 93.7 |
| COc1ccc(C(=O)N2CCC3(CCCN(C(=O)Cn4cc(C)c(=O)[nH]c4=O)C3)C2)cc1OC (stereo not drawn) [CBK137085] | 107 |
| COc1ccc(C(=O)N2CCC3(CCCN(C(=O)CN4C(=O)CSC4=O)C3)C2)cc1OC (stereo not drawn) [CBK137088] | 115 |
| Cc1cc(C(=O)N2CCC3(CCN(Cc4ccccc4)C3)C2)n[nH]1 (stereo not drawn) [CBK137092T] | 93.4 |
| CCOC(=O)C1(C2CCCCC2)CCN(C(=O)c2cc[nH]c2)CC1 [CBK137103] | 92.1 |
| CCOC(=O)C1(C2CCCCC2)CCN(C(=O)c2cccnc2)CC1 [CBK137104T] | 95.4 |
| COc1ccc(C(=O)N2CCC3(CCN(CCN4CCCCC4)C3)C2)cc1OC (stereo not drawn) [CBK137113T] | 103 |
| O=C(O)CCN1CCC2(CCN(C(=O)c3cc(F)c(F)cc3F)C2)C1 (stereo not drawn) [CBK137123] | 86.8 |
| O=c1[nH]c2ccccc2n1CCCN1CCC2(CC1)CN(CCO)c1ccccc12 [CBK137133] | 97.4 |
| O=C(O)CCN1CCCC2(CCN(C(=O)c3ccoc3)C2)C1 (stereo not drawn) [CBK137139] | 93.4 |
| O=C(CN1CCCC2(CCN(C(=O)c3ccoc3)C2)C1)Nc1ncccn1 (stereo not drawn) [CBK137140] | 102 |
| O=C(Cc1c[nH]cn1)N1CCC2(CCN(Cc3ccccc3)C2)C1 (stereo not drawn) [CBK137147] | 91 |
| O=C(c1ccc2[nH]c(=O)[nH]c2c1)N1CCCC2(CCN(Cc3ccccc3)C2)C1 (stereo not drawn) [CBK137149] | 91.7 |
| CCN(CCC(C)Sc1ccccc1)c1cncc(Oc2ccc(S(C)(=O)=O)cc2)n1 (stereo not drawn) [CBK137186T] | 96.5 |
| CC1(C(C)(O)C(F)F)OC(NC2C3CC4CC(C3)CC2C4)=NC1=O (stereo not drawn) [CBK137190] | 103 |
| O=S(=O)(c1ccccc1)N1CC2(CCNCC2)c2ccccc21 [CBK137413] | 84.2 |
| CC(=O)N1CCC(O)(C2(C)OC(NC3C4CC5CC(C4)CC3C5)=NC2=O)CC1 (stereo not drawn) [CBK138181] | 91.8 |
| Cc1cc(C)nc(NC(=O)OCc2cc(C)nc(C)c2)c1 [CBK138231] | 87.9 |

Same assay, conditions: human, hela cells, % viability, bulk resorufin, single well

| Compound | viability at 28.5 h, 10 µM [%] |
| --- | --- |
| CCOC(=O)N1CCC2(CC1)OCc1ccc(-c3ccc(S(C)(=O)=O)cc3)cc1O2 [CBK133035] | 86.1 |
